Patent US9604979B2, “Pyrroloquinoline quinone alcohol adduct” (Mitsubishi Gas Chemical Company, Inc., priority 2011, dated 2017)

Key:
[1] = Mixing with coenzyme Q10, color of the mixture; format: physicochemical; conditions: weight ratio 1:1
Escherichia coli JM109 = experiment: Effect on bacterial growth (viable bacteria count); format: cell-based; conditions: 8 mg sample + 100 μL E. coli JM109 solution (turbidity at 660 nm 0.57), 30 minutes room temperature, then 900 μL PBS, LB agar 30° C., colonies
Protocol: Escherichia coli JM109 was cultivated overnight in an LB medium at 30° C. The cultivated Escherichia coli JM109 was diluted with a phosphate buffer (PBS) having pH of 7.4 manufactured by GIBCO to obtain a solution 1 having turbidity at 660 nm of 0.57. To 8 mg of each sample shown in Table 2, 100 μL of the solution 1 was added at room temperature, and after 30 minutes, 900 μL of PBS was further added to obtain a solution 2. The solution 2 was planted in a petri dish with an LB agar medium and cultivated at 30° C., and a viable bacteria count was determined from the number of colonies in the solution 2.

[2] = High-performance liquid chromatography analysis: return of PQQ alcohol adduct to PQQ; format: physicochemical; conditions: 1 mg/ML adduct in phosphate buffer pH 7.4, left at room temperature for 2 hours, HPLC
Protocol: The high-performance liquid chromatography analysis of the PQQ alcohol adduct or the like was performed as follows.
A column: YMC-Pack ODS-TMS (5 μm) 150×4.6 mm I.D. was arranged in a high-performance liquid chromatography LC-20A manufactured by Shimadzu Corporation, and detection was performed at 260 nm using an eluent of 100 mM CH3COOH/100 mM CH3COONH4 (30/70, pH 5.1) and an absorption detector.
The PQQ methanol adduct obtained in Example 1 was added to a phosphate buffer (manufactured by Invitrogen pH 7.4) to obtain 1 mg/ML of a PQQ methanol adduct solution. After the PQQ methanol adduct solution was left at room temperature for 2 hours, the high-performance liquid chromatography analysis was performed. […] That is, the PQQ methanol adduct obtained in Example 1 returned to the original PQQ free body by the addition of the phosphate buffer and being left at room temperature for 2 hours.

[3] = Stability test in polypropylene container in oven (change of color); format: physicochemical
Protocol: It is to be noted that 100 μL of ODO, Nisshin Oillio was used as an edible fat and oil.

| Color of mixture with coenzyme Q10 [1] | PQQ existing in the PQQ methanol adduct solution [2] | Observation result after 7 days ([3]; 30° C., container's cover opened, 5 mg) | Discoloration in the opened state (container's cover opened) ([3]; Table 5) | Stability in the sealed state of the container ([3]; Table 5) | SMILES | Viable bacteria count (Escherichia coli JM109) |
| --- | --- | --- | --- | --- | --- | --- |
| Brown |  |  |  |  | O=C([O-])c1cc(C(=O)[O-])c2c(n1)C(=O)C(=O)c1cc(C(=O)O)[nH]c1-2.[Na+].[Na+] [PQQ disodium] |  |
| Yellow | 0.92 mg/mL | Red powder | immediately discolored to red | stable | COC1(O)C(=O)c2cc(C(=O)O)[nH]c2-c2c(C(=O)O)cc(C(=O)O)nc21 (stereo not drawn) [PQQ methanol adduct] | 0 |
| Brown |  |  |  |  | O=C(O)c1cc(C(=O)O)c2c(n1)C(=O)C(=O)c1cc(C(=O)O)[nH]c1-2 [PQQ free body, Pyrroloquinoline quinone] | 80 |
